The record followed here is ChEMBL document CHEMBL1201862, “PubChem BioAssay data set” (2004).

Some test systems named below: CAKI-1; COLO 205; HCT-15; HOP-62; HOP-92; HT-29; IGROV-1; K562; M14; MCF7; NCI-H460; NCI-H522; RPMI-8226; RXF 393; SK-OV-3; SN12C; SNB-75; T47D; UO-31; A498.
Common to all, as to assay: NCI anticancer screen, dose series, 48 h

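48-hour exposure; five concentrations; linearly interpolated endpoints. GI50 is the concentration that inhibits growth by half.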 Calls of active or inactive are those of the source. Cut-off read from the data, not from the text of the source: active = GI50 up to about 1.1 µM and inactive = higher.

Consider `Fc1cccc(F)c1C1SCc2nc3cc(Cl)c(Cl)cc3n21` (stereo unspecified), for which the GI50 was > 100 µM (inactive) in the assay on CAKI-1; > 100 µM (inactive) in the assay on COLO 205; more than 100 µM with HCT-15; > 100 µM (inactive) in the assay on HOP-62; 42.4 µM (inactive) in the assay with HOP-92; > 100 µM (inactive) in the assay on HT-29. The GI50 with IGROV-1, in the assay with K562, in the assay on M14, with MCF7, in the assay on NCI-H460 and in the assay with NCI-H522 was > 100 µM (inactive) each time. The GI50 in the assay with RPMI-8226 is > 100 µM (inactive); with RXF 393, > 100 µM (inactive); in the assay on SK-OV-3, > 100 µM (inactive); in the assay with SN12C, > 100 µM (inactive); in the assay with SNB-75 it was 95.7 µM (inactive); in the assay with T47D it was > 100 µM (inactive). The GI50 with UO-31 was > 100 µM (inactive).

Regarding `CNC(=O)Oc1ccc(C(=S)Nc2ccc(Br)cc2)cc1`, the GI50 is 18.4 µM (inactive) in the assay with A498; 17.8 µM (inactive) in the assay with CAKI-1; 18.2 µM (inactive) with COLO 205; 16.1 µM with HCT-15; 20.6 µM (inactive) in the assay on HOP-62; 19.9 µM (inactive) in the assay on HT-29. Further, the GI50 in the assay on IGROV-1 is 0.783 µM (active); in the assay on K562, 14.1 µM (inactive); with M14, 18.1 µM (inactive); with MCF7, 18.3 µM (inactive); with NCI-H522, 11.4 µM (inactive); in the assay with RPMI-8226, 23 µM (inactive). Also, the figures for the GI50 in the assay on SK-OV-3, in the assay on T47D and in the assay on UO-31 were 44 µM (inactive), 18.5 µM (inactive) and 17 µM (inactive), respectively.

As for `CC(C)(C)OC(=O)NC(CCCCNC(=O)OCc1ccccc1)C(=O)NC(CCCCNC(=O)OCc1ccccc1)C(=O)ON1C(=O)CCC1=O` (stereo unspecified), the GI50 is > 100 µM (inactive) in the assay with COLO 205; more than 100 µM with HCT-15; > 100 µM (inactive) with HOP-62; > 100 µM (inactive) in the assay on HOP-92; > 100 µM (inactive) in the assay with HT-29; > 100 µM (inactive) in the assay with IGROV-1. Further, the GI50 with K562, in the assay on M14, in the assay on MCF7, in the assay on RPMI-8226, in the assay with RXF 393 and in the assay with SN12C was > 100 µM (inactive) each time. The GI50 in the assay on SNB-75, in the assay with T47D and in the assay on UO-31 was > 100 µM (inactive) each time.

Regarding `Cc1ccc(S(=O)(=O)Nn2c(S)c(C#N)c(-c3ccc([N+](=O)[O-])cc3)c(C#N)c2=O)cc1`, the GI50 is 89.1 µM (inactive) in the assay on A498; > 100 µM (inactive) with CAKI-1; 29.2 µM (inactive) with COLO 205; 17.3 µM in the assay with HCT-15; 98.2 µM (inactive) with HOP-62; 32.1 µM (inactive) in the assay on HOP-92. Besides, the GI50 in the assay with HT-29 is 32.5 µM (inactive); in the assay on IGROV-1, 19.4 µM (inactive); in the assay with K562, 21.2 µM (inactive); in the assay on M14, 35.1 µM (inactive); with MCF7 it was 25.6 µM (inactive); with NCI-H460 it was 31 µM (inactive). Moreover, the GI50 with NCI-H522 is 15.7 µM (inactive); in the assay with RPMI-8226, 16.4 µM (inactive); in the assay with RXF 393, 39 µM (inactive); in the assay on SK-OV-3, 82 µM (inactive); in the assay on SN12C, 19.1 µM (inactive); with SNB-75 it was 56.5 µM (inactive).

Regarding `O=C(CC(NC(=O)OCc1ccccc1)C(=O)NC1Cc2ccccc2C1=O)OCc1ccccc1` (stereo unspecified), the GI50 was > 100 µM (inactive) in the assay with CAKI-1; more than 100 µM in the assay with HCT-15; > 100 µM (inactive) in the assay with HOP-62; > 100 µM (inactive) in the assay with HT-29; > 100 µM (inactive) in the assay with IGROV-1; > 100 µM (inactive) in the assay with K562. In addition, the GI50 with M14, with MCF7, in the assay on NCI-H460, in the assay with NCI-H522, with RPMI-8226 and in the assay on RXF 393 was > 100 µM (inactive) each time. Besides, the GI50 is > 100 µM (inactive) with SK-OV-3, > 100 µM (inactive) with SN12C, 59.3 µM (inactive) in the assay with SNB-75 and > 100 µM (inactive) with UO-31.

As for `Cc1cccc(NS(=O)(=O)c2ccc3c(c2)OCCOCCOCCOCCO3)c1`, the GI50 was > 100 µM (inactive) in the assay with A498; > 100 µM (inactive) in the assay on CAKI-1; > 100 µM (inactive) in the assay on COLO 205; more than 100 µM in the assay on HCT-15; > 100 µM (inactive) with HOP-62; > 100 µM (inactive) with HT-29. The GI50 in the assay on IGROV-1 is > 100 µM (inactive); in the assay on K562, > 100 µM (inactive); in the assay with M14, > 100 µM (inactive); in the assay with MCF7, > 100 µM (inactive); in the assay on NCI-H460, > 100 µM (inactive); in the assay with NCI-H522 it was 16.1 µM (inactive). Moreover, the GI50 with RPMI-8226 was > 100 µM (inactive); in the assay with SK-OV-3 it was > 100 µM (inactive); in the assay on SN12C, > 100 µM (inactive); with SNB-75 it was 51.5 µM (inactive); with T47D it was 43.5 µM (inactive); in the assay on UO-31, > 100 µM (inactive).

On to `C/C(=C\c1ccc(Cl)c(Cl)c1)[N+](=O)[O-]`, for which the GI50 was 4.4 µM (inactive) in the assay on A498; 1.35 µM in the assay with HCT-15; 2.5 µM (inactive) with HOP-62; 3.78 µM (inactive) with HT-29; 2.16 µM (inactive) in the assay with IGROV-1; 1.55 µM (inactive) in the assay with K562. Moreover, the GI50 was 0.738 µM (active) with M14; 0.433 µM (active) in the assay on MCF7; 20.7 µM (inactive) in the assay with NCI-H460; 1.63 µM (inactive) in the assay with NCI-H522; 2.05 µM (inactive) in the assay on SN12C; 4.2 µM (inactive) in the assay with SNB-75. In the assay with UO-31, the GI50 is 1.32 µM (inactive).

Turning to `CSc1nc(Cl)c2c(n1)Sc1nc3ccccc3n1N=C2`, the GI50 with A498 is > 100 µM (inactive); with CAKI-1 it was 13.4 µM (inactive); in the assay with COLO 205, 23 µM (inactive); with HCT-15, 17.6 µM; with HOP-62, 41.7 µM (inactive); with HOP-92 it was 18.3 µM (inactive). The GI50 was 23.2 µM (inactive) in the assay on HT-29; 17 µM (inactive) with IGROV-1; 21.3 µM (inactive) in the assay on K562; 21 µM (inactive) with M14; 56 µM (inactive) in the assay with NCI-H460; 19 µM (inactive) in the assay with NCI-H522. Further, the GI50 with RPMI-8226 was 21.6 µM (inactive); in the assay on RXF 393 it was 22.6 µM (inactive); with SK-OV-3, > 100 µM (inactive); in the assay with SN12C it was 37.8 µM (inactive); in the assay on SNB-75, 25.9 µM (inactive); with T47D, 23.5 µM (inactive). In addition, the GI50 with UO-31 was 18.5 µM (inactive).

For the compound `CCN(CC)C(=O)Cn1c(C)cc2ccccc21`, the GI50 in the assay with CAKI-1 was > 100 µM (inactive); in the assay on COLO 205, > 100 µM (inactive); in the assay on HCT-15, more than 100 µM; in the assay on HOP-62, > 100 µM (inactive); in the assay on HOP-92, > 100 µM (inactive); in the assay with HT-29, > 100 µM (inactive). In addition, the GI50 with IGROV-1, in the assay with K562, in the assay with M14, in the assay on MCF7, with NCI-H460 and in the assay with NCI-H522 was > 100 µM (inactive) each time. Besides, the GI50 in the assay with RPMI-8226, with RXF 393, in the assay with SK-OV-3, in the assay with SN12C, in the assay with SNB-75 and in the assay on T47D was > 100 µM (inactive) in each case. In the assay with UO-31, the GI50 was > 100 µM (inactive).

Turning to `CC(C)[C@@H]1CC[C@@H](C)C[C@H]1OC(=O)c1c2n(c3ccccc13)C[C@H]1OC(C)(C)O[C@@H]21`, the GI50 in the assay on CAKI-1 was 26.9 µM (inactive); with COLO 205 it was 72.4 µM (inactive); with HCT-15, 24.7 µM; in the assay on HOP-62 it was 27.5 µM (inactive); in the assay on HT-29, 8.2 µM (inactive); with IGROV-1, 13 µM (inactive). Also, the GI50 is 4.53 µM (inactive) in the assay on K562; 22.9 µM (inactive) in the assay on M14; 14.1 µM (inactive) in the assay on MCF7; 3.61 µM (inactive) with RPMI-8226; 13.7 µM (inactive) in the assay with RXF 393; 21.3 µM (inactive) in the assay with SK-OV-3. For the same compound, the GI50 is 24.9 µM (inactive) in the assay on SN12C, 15.2 µM (inactive) in the assay on T47D and 96.2 µM (inactive) with UO-31.

On to `COC(=O)c1ccccc1C1=C([N+](=O)[O-])C(c2cccc(Br)c2)C(C#N)=C(N)O1` (stereo unspecified), for which the GI50 with COLO 205 is 33 µM (inactive); in the assay on HCT-15, 19.4 µM; in the assay on HOP-62 it was 33 µM (inactive); with HOP-92, 21.5 µM (inactive); with HT-29, 43.5 µM (inactive); with IGROV-1, 27.8 µM (inactive). Further, the GI50 was 19.9 µM (inactive) with K562; 28 µM (inactive) in the assay with M14; 41.3 µM (inactive) with NCI-H460; 13.6 µM (inactive) with NCI-H522; 23.7 µM (inactive) in the assay on RPMI-8226; 18.3 µM (inactive) in the assay on RXF 393. The GI50 in the assay on SK-OV-3 is > 100 µM (inactive); in the assay on SN12C it was 38 µM (inactive); in the assay on SNB-75, 25.4 µM (inactive); with T47D it was 28.3 µM (inactive).

With `Cc1c(O)c(=O)ccn1CCc1c[nH]c2ccccc12`, the GI50 in the assay on CAKI-1 was 1.21 µM (inactive); in the assay on COLO 205 it was 12.6 µM (inactive); in the assay on HCT-15, 0.397 µM; in the assay with HOP-62 it was 8.75 µM (inactive); in the assay on HOP-92, 0.483 µM (active); with HT-29, 3.75 µM (inactive). Also, the GI50 with K562 was 14.4 µM (inactive); in the assay with M14 it was 7.48 µM (inactive); with MCF7, 4.89 µM (inactive); in the assay on NCI-H460 it was 4.11 µM (inactive); in the assay with RPMI-8226 it was 3.69 µM (inactive); in the assay with SK-OV-3, 12.5 µM (inactive). Further, the GI50 in the assay on T47D is 22.3 µM (inactive).
